Experimental data as given in ChEMBL document CHEMBL5653631, “A Potent and Selective ULK1 Inhibitor Suppresses Autophagy and Sensitizes Cancer Cells to Nutrient Stress” (iScience, 2018).

Key:
[1] = target: Serine/threonine-protein kinase 32B (Homo sapiens) (UniProt Q9NY57); assay: Inhibition of human recombinant YANK2 at 40 nM in presence of ATP by radiometric assay relative to control
[2] = target: Protein kinase C alpha type (Homo sapiens) (UniProt P17252); assay: Inhibition of human recombinant PKCa at 40 nM in presence of ATP by radiometric assay relative to control
[3] = target: Mitogen-activated protein kinase 10 (Homo sapiens) (UniProt P53779); assay: Inhibition of human recombinant JNK3 at 40 nM in presence of ATP by radiometric assay relative to control
Mitogen-activated protein kinase 10 (Homo sapiens), sequence (P53779 whole entry): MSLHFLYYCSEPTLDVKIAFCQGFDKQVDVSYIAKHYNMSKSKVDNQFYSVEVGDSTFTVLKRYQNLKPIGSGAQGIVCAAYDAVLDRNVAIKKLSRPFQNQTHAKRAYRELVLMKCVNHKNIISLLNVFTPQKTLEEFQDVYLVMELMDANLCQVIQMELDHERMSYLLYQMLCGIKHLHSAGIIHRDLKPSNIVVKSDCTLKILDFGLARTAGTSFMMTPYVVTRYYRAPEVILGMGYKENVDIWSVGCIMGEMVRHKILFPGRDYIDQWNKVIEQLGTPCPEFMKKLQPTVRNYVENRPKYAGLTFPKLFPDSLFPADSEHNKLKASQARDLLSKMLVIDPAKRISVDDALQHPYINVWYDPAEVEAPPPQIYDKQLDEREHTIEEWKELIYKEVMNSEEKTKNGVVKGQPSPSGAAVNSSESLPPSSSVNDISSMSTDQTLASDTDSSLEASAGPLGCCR

[4] = target: Mitogen-activated protein kinase 1 (Homo sapiens) (UniProt P28482); assay: Inhibition of human recombinant Erk2 at 40 nM in presence of ATP by radiometric assay relative to control
Mitogen-activated protein kinase 1 (Homo sapiens), sequence (P28482 whole entry): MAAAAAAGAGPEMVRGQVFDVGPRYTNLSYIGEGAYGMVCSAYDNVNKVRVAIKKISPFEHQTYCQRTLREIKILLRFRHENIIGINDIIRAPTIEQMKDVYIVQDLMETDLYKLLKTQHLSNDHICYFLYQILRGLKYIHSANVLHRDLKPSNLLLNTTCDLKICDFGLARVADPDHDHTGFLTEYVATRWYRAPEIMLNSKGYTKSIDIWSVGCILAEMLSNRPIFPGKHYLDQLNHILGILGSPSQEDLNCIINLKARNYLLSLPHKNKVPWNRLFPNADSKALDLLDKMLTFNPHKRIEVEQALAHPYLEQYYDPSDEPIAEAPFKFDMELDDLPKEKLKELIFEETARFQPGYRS

[5] = target: Rho-associated protein kinase 2 (Homo sapiens) (UniProt O75116); assay: Inhibition of human recombinant ROCK2 at 500 nM in presence of ATP by radiometric assay relative to control
Rho-associated protein kinase 2 (Homo sapiens), sequence (O75116 whole entry, looked up): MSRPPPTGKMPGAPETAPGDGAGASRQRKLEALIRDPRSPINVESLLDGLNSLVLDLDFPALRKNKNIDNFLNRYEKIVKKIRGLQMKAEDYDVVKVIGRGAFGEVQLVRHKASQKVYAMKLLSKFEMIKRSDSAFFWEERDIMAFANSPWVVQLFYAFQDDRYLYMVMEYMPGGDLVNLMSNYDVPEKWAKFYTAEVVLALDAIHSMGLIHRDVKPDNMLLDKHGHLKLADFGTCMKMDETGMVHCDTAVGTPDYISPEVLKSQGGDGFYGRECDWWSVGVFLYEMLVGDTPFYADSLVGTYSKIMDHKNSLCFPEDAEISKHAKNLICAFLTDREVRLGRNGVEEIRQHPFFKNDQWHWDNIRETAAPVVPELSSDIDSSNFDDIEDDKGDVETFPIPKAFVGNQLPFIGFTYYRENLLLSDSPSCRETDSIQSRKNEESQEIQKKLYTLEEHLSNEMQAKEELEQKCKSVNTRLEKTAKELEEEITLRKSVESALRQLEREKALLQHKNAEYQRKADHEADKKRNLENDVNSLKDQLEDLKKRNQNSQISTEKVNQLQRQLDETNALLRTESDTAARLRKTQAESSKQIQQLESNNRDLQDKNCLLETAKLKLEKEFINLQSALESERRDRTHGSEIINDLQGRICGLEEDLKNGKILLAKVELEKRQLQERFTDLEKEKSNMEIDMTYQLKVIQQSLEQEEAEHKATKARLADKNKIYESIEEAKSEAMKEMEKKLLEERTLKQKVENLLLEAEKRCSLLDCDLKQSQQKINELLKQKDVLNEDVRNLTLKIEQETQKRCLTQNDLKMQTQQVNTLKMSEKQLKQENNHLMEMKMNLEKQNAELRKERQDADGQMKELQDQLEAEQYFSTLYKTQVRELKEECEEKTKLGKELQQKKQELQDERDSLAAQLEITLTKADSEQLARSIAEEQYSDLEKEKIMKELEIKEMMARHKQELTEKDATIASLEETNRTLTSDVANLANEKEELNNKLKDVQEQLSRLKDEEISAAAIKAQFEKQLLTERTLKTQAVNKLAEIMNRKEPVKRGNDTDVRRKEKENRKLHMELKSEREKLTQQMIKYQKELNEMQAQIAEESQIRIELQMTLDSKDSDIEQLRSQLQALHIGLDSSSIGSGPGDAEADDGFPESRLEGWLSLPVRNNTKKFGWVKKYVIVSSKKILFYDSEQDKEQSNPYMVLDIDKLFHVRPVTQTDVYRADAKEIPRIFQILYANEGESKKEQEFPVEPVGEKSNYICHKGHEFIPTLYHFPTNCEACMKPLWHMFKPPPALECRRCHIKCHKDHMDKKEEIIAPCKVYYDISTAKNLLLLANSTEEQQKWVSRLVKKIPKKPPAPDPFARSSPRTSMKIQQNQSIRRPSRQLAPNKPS

[6] = target: T1, Rhodopsin kinase GRK1 (Homo sapiens) (UniProt Q15835); assay: Inhibition of human recombinant RHOK at 500 nM in presence of ATP by radiometric assay relative to control
T1 sequence (whole entry): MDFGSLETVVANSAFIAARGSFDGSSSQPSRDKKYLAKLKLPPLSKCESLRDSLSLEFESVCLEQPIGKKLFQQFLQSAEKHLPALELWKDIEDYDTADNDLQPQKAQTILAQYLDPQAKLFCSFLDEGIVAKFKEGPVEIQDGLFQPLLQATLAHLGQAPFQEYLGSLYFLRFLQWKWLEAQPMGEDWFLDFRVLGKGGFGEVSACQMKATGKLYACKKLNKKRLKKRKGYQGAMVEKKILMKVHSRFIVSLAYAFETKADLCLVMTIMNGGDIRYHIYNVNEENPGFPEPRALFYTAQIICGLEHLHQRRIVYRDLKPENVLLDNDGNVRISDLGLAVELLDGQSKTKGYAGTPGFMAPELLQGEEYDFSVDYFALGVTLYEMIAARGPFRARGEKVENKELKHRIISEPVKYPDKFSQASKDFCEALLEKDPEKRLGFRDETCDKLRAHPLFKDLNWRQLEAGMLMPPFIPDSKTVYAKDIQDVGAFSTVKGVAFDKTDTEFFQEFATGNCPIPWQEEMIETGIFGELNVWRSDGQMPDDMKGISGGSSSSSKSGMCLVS

[7] = target: T2, Discoidin domain-containing receptor 2 (Homo sapiens) (UniProt Q16832); assay: Inhibition of human recombinant DDR2 at 15 nM in presence of ATP by radiometric assay relative to control
T2 sequence (whole entry): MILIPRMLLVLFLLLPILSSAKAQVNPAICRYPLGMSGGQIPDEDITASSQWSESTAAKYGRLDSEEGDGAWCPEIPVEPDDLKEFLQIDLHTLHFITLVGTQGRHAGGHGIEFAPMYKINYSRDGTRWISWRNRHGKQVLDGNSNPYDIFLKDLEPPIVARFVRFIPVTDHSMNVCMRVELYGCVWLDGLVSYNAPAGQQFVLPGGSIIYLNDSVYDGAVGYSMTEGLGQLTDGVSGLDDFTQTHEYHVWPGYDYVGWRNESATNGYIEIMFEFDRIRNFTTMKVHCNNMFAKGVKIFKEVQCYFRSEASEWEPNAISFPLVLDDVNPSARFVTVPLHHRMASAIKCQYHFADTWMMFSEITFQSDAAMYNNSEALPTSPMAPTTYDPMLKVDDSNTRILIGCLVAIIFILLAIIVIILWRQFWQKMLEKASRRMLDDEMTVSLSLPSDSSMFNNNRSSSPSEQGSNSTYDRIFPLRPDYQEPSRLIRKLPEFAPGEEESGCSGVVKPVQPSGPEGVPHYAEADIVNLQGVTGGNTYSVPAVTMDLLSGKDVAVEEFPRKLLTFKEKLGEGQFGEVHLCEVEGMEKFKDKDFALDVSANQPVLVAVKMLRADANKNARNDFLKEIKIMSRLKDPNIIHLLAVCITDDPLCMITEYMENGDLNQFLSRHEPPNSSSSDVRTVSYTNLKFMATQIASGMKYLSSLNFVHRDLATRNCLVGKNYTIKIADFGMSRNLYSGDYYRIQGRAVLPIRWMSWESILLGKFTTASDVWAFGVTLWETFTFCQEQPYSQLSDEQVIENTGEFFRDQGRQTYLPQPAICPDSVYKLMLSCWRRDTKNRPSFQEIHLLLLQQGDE

[8] = target: T3, Serine/threonine-protein kinase Sgk1 (Homo sapiens) (UniProt O00141); assay: Inhibition of human recombinant SGK1 at 15 nM related to control ULK1
T3 sequence (whole entry): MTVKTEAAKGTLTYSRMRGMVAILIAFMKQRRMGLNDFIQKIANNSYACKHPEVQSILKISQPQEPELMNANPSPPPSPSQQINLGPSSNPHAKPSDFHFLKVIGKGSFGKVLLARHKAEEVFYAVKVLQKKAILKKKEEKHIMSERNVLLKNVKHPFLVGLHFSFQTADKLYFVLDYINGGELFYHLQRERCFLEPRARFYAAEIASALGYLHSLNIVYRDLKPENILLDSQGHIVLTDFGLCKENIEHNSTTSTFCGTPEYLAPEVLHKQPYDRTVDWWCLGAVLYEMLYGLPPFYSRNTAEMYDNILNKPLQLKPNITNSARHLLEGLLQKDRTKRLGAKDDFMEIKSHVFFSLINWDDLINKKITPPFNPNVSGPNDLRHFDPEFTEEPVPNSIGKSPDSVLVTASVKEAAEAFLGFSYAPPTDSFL

[9] = target: Tyrosine-protein kinase SYK (Homo sapiens) (UniProt P43405); assay: Inhibition of human recombinant SYK at 15 nM related to control ULK1
[10] = target: RAC-alpha serine/threonine-protein kinase (Homo sapiens) (UniProt P31749); assay: Inhibition of human recombinant AKT1 at 15 nM related to control ULK1
RAC-alpha serine/threonine-protein kinase (Homo sapiens), sequence (P31749 whole entry): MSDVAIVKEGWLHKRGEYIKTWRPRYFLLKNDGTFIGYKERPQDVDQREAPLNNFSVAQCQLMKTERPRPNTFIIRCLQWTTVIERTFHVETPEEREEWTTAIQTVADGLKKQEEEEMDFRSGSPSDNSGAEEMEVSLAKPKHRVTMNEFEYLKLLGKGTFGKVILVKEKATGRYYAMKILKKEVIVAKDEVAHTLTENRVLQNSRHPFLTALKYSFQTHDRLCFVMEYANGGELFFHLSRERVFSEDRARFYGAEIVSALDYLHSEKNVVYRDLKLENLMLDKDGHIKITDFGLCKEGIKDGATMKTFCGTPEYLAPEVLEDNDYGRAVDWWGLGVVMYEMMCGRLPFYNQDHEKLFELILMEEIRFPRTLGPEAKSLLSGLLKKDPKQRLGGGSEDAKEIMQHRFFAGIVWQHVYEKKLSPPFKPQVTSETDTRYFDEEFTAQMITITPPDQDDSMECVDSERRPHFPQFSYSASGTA

[11] = target: Non-receptor tyrosine-protein kinase TYK2 (Homo sapiens) (UniProt P29597); assay: Inhibition of human recombinant TYK2 at 15 nM related to control ULK1
Non-receptor tyrosine-protein kinase TYK2 (Homo sapiens), sequence (P29597 whole entry): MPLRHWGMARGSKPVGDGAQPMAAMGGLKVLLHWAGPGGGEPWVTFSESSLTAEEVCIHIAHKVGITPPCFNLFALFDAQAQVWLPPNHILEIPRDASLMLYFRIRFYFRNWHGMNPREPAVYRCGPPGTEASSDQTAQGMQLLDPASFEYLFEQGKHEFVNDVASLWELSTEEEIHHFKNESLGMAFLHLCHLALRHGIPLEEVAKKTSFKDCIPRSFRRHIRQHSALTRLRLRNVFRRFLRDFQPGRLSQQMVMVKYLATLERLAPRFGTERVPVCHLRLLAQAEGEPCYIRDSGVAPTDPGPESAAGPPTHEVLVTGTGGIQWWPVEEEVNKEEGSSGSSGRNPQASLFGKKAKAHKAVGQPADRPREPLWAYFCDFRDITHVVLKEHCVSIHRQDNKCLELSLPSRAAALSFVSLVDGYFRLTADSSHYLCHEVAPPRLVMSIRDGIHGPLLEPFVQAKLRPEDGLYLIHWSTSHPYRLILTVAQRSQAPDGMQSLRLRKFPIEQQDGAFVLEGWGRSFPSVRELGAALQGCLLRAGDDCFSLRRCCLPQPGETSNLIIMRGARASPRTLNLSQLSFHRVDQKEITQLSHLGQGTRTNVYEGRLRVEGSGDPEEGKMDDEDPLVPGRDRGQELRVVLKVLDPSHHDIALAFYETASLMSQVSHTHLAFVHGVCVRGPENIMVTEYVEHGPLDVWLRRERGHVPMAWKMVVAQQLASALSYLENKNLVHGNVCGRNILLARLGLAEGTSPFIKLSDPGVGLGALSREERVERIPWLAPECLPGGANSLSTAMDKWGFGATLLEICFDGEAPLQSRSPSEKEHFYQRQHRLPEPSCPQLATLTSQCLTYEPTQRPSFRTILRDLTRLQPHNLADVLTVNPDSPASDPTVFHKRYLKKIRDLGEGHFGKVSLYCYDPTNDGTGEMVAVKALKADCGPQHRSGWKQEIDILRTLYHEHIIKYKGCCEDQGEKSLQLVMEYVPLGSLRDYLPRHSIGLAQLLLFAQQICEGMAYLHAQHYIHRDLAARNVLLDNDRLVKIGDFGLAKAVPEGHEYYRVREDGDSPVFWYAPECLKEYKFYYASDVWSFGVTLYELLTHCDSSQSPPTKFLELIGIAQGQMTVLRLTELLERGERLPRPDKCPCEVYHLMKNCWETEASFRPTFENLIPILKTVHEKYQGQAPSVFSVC

[12] = target: T4, Testis-specific serine/threonine-protein kinase 1 (Homo sapiens) (UniProt Q9BXA7); assay: Inhibition of human recombinant TSSK1 at 15 nM related to control ULK1
T4 sequence (whole entry): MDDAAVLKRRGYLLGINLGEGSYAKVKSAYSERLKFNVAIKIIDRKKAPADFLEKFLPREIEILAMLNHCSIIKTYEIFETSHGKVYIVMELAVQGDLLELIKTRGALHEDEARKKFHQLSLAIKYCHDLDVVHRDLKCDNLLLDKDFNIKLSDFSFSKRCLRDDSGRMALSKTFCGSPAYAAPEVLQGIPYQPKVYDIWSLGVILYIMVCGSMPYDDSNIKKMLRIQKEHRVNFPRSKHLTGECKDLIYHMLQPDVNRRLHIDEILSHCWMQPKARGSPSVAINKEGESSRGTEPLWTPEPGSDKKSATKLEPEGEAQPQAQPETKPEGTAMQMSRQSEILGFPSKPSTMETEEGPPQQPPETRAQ

Serine/threonine-protein kinase 32B (Homo sapiens), sequence (Q9NY57 whole entry): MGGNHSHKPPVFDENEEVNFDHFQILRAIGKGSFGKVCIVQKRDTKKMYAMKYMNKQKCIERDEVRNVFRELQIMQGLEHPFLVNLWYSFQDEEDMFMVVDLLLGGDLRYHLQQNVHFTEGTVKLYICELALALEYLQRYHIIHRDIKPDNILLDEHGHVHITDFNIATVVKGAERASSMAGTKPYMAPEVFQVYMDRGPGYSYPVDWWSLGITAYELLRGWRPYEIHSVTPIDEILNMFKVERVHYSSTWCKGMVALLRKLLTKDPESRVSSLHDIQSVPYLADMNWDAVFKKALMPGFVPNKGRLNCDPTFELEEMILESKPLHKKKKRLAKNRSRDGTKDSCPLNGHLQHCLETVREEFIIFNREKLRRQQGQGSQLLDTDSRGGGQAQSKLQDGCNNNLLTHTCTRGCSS

With `O=C(N[C@@H](C1CC1)C(F)(F)F)c1cc(-c2cnn3cc(-c4ccc(F)cc4)cnc23)cs1` the inhibition [1] was 3%, the inhibition [2] was 0% and the inhibition [3] was 0%. It also gave an inhibition [4] of 0%.
`CNC(=O)c1ccccc1Oc1nc(Nc2cc(OC)c(OC)c(OC)c2)ncc1Br` was tested, and the inhibition [5] was 0% and the inhibition [6] was 0%.
`CC(C)[C@H](NC(=O)c1cc(-c2cnn3cc(-c4ccc(OCCN5CCCCC5)cc4)cnc23)cs1)C(F)(F)F` was tested, and the inhibition [7] was 0%, the fold change (FC) [8] was 0.05 and the fold change (FC) [9] was 0. The fold change (FC) [10] was 0, the fold change (FC) [11] was 0.02 and the fold change (FC) [12] was 0.26.
